Data from the NIST ThermoML archive (doi:10.1021/je060200b).
± gives the expanded uncertainty stated by the source.

Experiment: molar heat capacity at constant pressure; xn = mol fraction of the nth substance listed
Details: 101 kPa, Liquid

BrCCCCCBr [1,5-dibromopentane] + CCCCCCC
molar heat capacity at constant pressure [J/K/mol]
Details	x1 = 0.1006	x1 = 0.1994	x1 = 0.3003	x1 = 0.4008	x1 = 0.5004	x1 = 0.5999	x1 = 0.6995	x1 = 0.8002	x1 = 0.899	x1 = 1
293.15 K	221.62 ± 1.7	221.15 ± 1.7	221 ± 1.7	220.91 ± 1.7	220.8 ± 1.7	220.5 ± 1.7	220.19 ± 1.7	219.87 ± 1.7	219.89 ± 1.7	219.76 ± 1.7
294.15 K	221.93 ± 1.7	221.54 ± 1.7	221.39 ± 1.7	221.29 ± 1.7	221.14 ± 1.7	220.66 ± 1.7	220.44 ± 1.7	220.16 ± 1.7	220.02 ± 1.7	219.98 ± 1.7
295.15 K	222.35 ± 1.7	221.76 ± 1.7	221.59 ± 1.7	221.6 ± 1.7	221.41 ± 1.7	220.91 ± 1.7	220.59 ± 1.7	220.44 ± 1.7	220.3 ± 1.7	220.19 ± 1.7
296.15 K	222.62 ± 1.7	222.09 ± 1.7	221.89 ± 1.7	221.77 ± 1.7	221.59 ± 1.7	221.3 ± 1.7	220.81 ± 1.7	220.57 ± 1.7	220.61 ± 1.7	220.41 ± 1.7
297.15 K	223.06 ± 1.7	222.53 ± 1.7	222.34 ± 1.7	222.15 ± 1.7	221.87 ± 1.7	221.5 ± 1.7	221.19 ± 1.7	220.89 ± 1.7	220.76 ± 1.7	220.66 ± 1.7
298.15 K	223.39 ± 1.7	222.84 ± 1.7	222.66 ± 1.7	222.48 ± 1.7	222.23 ± 1.7	221.68 ± 1.7	221.42 ± 1.7	221.11 ± 1.7	221.09 ± 1.7	220.84 ± 1.7
299.15 K	223.7 ± 1.7	223.2 ± 1.7	222.87 ± 1.7	222.74 ± 1.7	222.55 ± 1.7	221.91 ± 1.7	221.69 ± 1.7	221.39 ± 1.7	221.32 ± 1.7	221.1 ± 1.7
300.15 K	224.16 ± 1.7	223.42 ± 1.7	223.3 ± 1.7	222.91 ± 1.7	222.69 ± 1.7	222.3 ± 1.7	221.83 ± 1.7	221.48 ± 1.7	221.55 ± 1.7	221.28 ± 1.7
301.15 K	224.39 ± 1.7	223.89 ± 1.7	223.58 ± 1.7	223.33 ± 1.7	223.05 ± 1.7	222.57 ± 1.7	222.17 ± 1.7	221.85 ± 1.7	221.77 ± 1.7	221.49 ± 1.7
302.15 K	224.88 ± 1.7	224.24 ± 1.7	223.78 ± 1.7	223.52 ± 1.7	223.39 ± 1.7	222.87 ± 1.7	222.33 ± 1.7	222.09 ± 1.7	221.93 ± 1.7	221.73 ± 1.7
303.15 K	225.21 ± 1.7	224.57 ± 1.7	224.21 ± 1.7	223.81 ± 1.7	223.49 ± 1.7	223.01 ± 1.7	222.58 ± 1.7	222.36 ± 1.7	222.22 ± 1.7	221.95 ± 1.7
304.15 K	225.49 ± 1.8	224.9 ± 1.7	224.44 ± 1.7	224.26 ± 1.7	223.94 ± 1.7	223.37 ± 1.7	222.93 ± 1.7	222.44 ± 1.7	222.36 ± 1.7	222.17 ± 1.7
305.15 K	225.96 ± 1.8	225.3 ± 1.8	224.89 ± 1.7	224.59 ± 1.7	224.11 ± 1.7	223.63 ± 1.7	223.17 ± 1.7	222.81 ± 1.7	222.72 ± 1.7	222.41 ± 1.7
306.15 K	226.32 ± 1.8	225.5 ± 1.8	225.09 ± 1.7	224.8 ± 1.7	224.39 ± 1.7	223.91 ± 1.7	223.45 ± 1.7	223.05 ± 1.7	222.99 ± 1.7	222.63 ± 1.7
307.15 K	226.59 ± 1.8	225.83 ± 1.8	225.41 ± 1.8	225.15 ± 1.7	224.77 ± 1.7	224.05 ± 1.7	223.72 ± 1.7	223.33 ± 1.7	223.23 ± 1.7	222.85 ± 1.7
308.15 K	227.03 ± 1.8	226.31 ± 1.8	225.84 ± 1.8	225.38 ± 1.8	225.09 ± 1.7	224.36 ± 1.7	223.89 ± 1.7	223.55 ± 1.7	223.34 ± 1.7	223.09 ± 1.7
309.15 K	227.44 ± 1.8	226.66 ± 1.8	226.09 ± 1.8	225.8 ± 1.8	225.27 ± 1.7	224.76 ± 1.7	224.26 ± 1.7	223.77 ± 1.7	223.6 ± 1.7	223.31 ± 1.7
310.15 K	227.81 ± 1.8	226.87 ± 1.8	226.5 ± 1.8	226.12 ± 1.8	225.7 ± 1.8	224.95 ± 1.7	224.52 ± 1.7	224.04 ± 1.7	223.81 ± 1.7	223.56 ± 1.7
311.15 K	228.09 ± 1.8	227.25 ± 1.8	226.85 ± 1.8	226.31 ± 1.8	225.87 ± 1.8	225.3 ± 1.8	224.66 ± 1.7	224.19 ± 1.7	224.19 ± 1.7	223.78 ± 1.7
312.15 K	228.59 ± 1.8	227.7 ± 1.8	227.09 ± 1.8	226.6 ± 1.8	226.24 ± 1.8	225.58 ± 1.8	225.06 ± 1.7	224.56 ± 1.7	224.44 ± 1.7	224.03 ± 1.7
313.15 K	228.91 ± 1.8	228.06 ± 1.8	227.49 ± 1.8	227.05 ± 1.8	226.53 ± 1.8	225.84 ± 1.8	225.31 ± 1.8	224.81 ± 1.7	224.67 ± 1.7	224.26 ± 1.7
